Measurements: ChEMBL document CHEMBL5360538, “Recent updates on 1,2,3-triazole-containing hybrids with in vivo therapeutic potential against cancers: A mini-review” (Eur J Med Chem, 2023)
Blank lines part the entries; values can stand above or below the compound they belong to.

Key:
Hep 3B2 = experiment: Antiproliferative activity against human Hep3B cells assessed as inhibition of cell growth incubated for 72 hrs by MTT assay; type: functional, cell-based
H22 [1] = experiment: Antitumor activity against […] cells xenografted in BALB/c mouse model assessed as inhibition of tumor growth at 15 mg/kg, ip administered every 2 days for 15 days relative to control; type: functional; settings: H22, 360 h, time 15 day
HepG2 [2] = experiment: Antiproliferative activity against human HepG2 cells assessed as inhibition of cell growth incubated for 72 hrs by MTT assay; type: functional, cell-based; settings: HepG2, 72 h
H22 [3] = experiment: Antitumor activity against […] cells xenografted in BALB/c mouse model assessed as inhibition of tumor growth at 45 mg/kg, ip administered every 2 days for 15 days relative to control; type: functional; settings: H22, 360 h, time 15 day
[4] = Antiproliferative activity against human IMR-90 cells assessed as inhibition of cell growth by MTT assay; type: toxicity, cell-based
A549 [5] = experiment: Antitumor activity against human A549 cells xenografted in zebrafish model assessed as reduction in tumor focal area at 2.5 uM relative to control; type: functional; set-up: scale not given: the % may be the effect or the level left
A549 [6] = experiment: Antiproliferative activity against human A549 cells assessed as inhibition of cell growth by MTT assay; type: functional, cell-based
BGC-823 [7] = experiment: Potency index, ratio of 5-fluorouracil IC50 to test compound IC50 for antiproliferative activity against human BGC-823 cells assessed as inhibition of cell growth incubated for 72 hrs by MTT assay; type: functional
SGC-7901 [8] = experiment: Antiproliferative activity against human SGC-7901 cells assessed as inhibition of cell growth incubated for 72 hrs by MTT assay; type: functional, cell-based; settings: SGC-7901, 72 h
MGC-803 [9] = experiment: Potency index, ratio of 5-fluorouracil IC50 to test compound IC50 for antiproliferative activity against human MGC-803 cells assessed as inhibition of cell growth incubated for 72 hrs by MTT assay; type: functional
MGC-803 [10] = experiment: Antitumor activity against human MGC-803 cells xenografted in BALB/c nude mouse model assessed as inhibition of tumor growth at 60 mg/kg, IG administered daily for 21 days relative to control; type: functional; settings: MGC-803, po, 504 h, time 21 day
BGC-823 [11] = experiment: Antiproliferative activity against human BGC-823 cells assessed as inhibition of cell growth incubated for 72 hrs by MTT assay; type: functional, cell-based; settings: BGC-823, 72 h
SGC-7901 [12] = experiment: Potency index, ratio of 5-fluorouracil IC50 to test compound IC50 for antiproliferative activity against human SGC-7901 cells assessed as inhibition of cell growth incubated for 72 hrs by MTT assay; type: functional
MGC-803 [13] = experiment: Antiproliferative activity against human MGC-803 cells assessed as inhibition of cell growth incubated for 72 hrs by MTT assay; type: functional, cell-based; settings: MGC-803, 72 h
A549 [14] = experiment: Antitumor activity against human A549 cells xenografted in BALB/c nude mouse model assessed as inhibition of tumor growth at 80 mg/kg, ip administered every other day for 7 times relative to control; type: functional
NCI-H460 = experiment: Antiproliferative activity against human NCI-H460 cells assessed as inhibition of cell growth by MTT assay; type: functional, cell-based
HepG2 [15] = experiment: Antiproliferative activity against human HepG2 cells assessed as inhibition of cell growth by MTT assay; type: functional, cell-based
MDA-MB-231 = experiment: Antiproliferative activity against human MDA-MB-231 cells assessed as inhibition of cell growth by MTT assay; type: functional, cell-based
HT-29 = experiment: Antiproliferative activity against human HT-29 cells assessed as inhibition of cell growth by MTT assay; type: functional, cell-based
SGC-7901 [16] = experiment: Antiproliferative activity against human SGC-7901 cells assessed as inhibition of cell growth by MTT assay; type: functional, cell-based
MCF7 = experiment: cells; settings: Homo sapiens
A549/TR = experiment: Antiproliferative activity against taxol-resistant human A549/Taxol cells assessed as inhibition of cell growth by MTT assay; type: functional, cell-based
Bel-7402 = experiment: Antiproliferative activity against human Bel-7402 cells assessed as inhibition of cell growth by MTT assay; type: functional, cell-based
4T1 = experiment: Antitumor activity against mouse 4T1 cells implanted mouse model assessed as inhibition of tumor growth at 15 mg/kg, ip relative to control; type: functional
[17] = Antitumor activity against human Topotecan-resistant S1M180 cells over expressing BCRP xenografted in BALB/c nude mouse model assessed as reduction in tumor volume at 45 mg/kg, ip administered every 2 days for 6 times relative to control; type: functional, Topotecan-resistant S1M180 cell; set-up: scale not given: the % may be the effect or the level left; settings: time 12 day
[18] = Cmax in BALB/c mouse at 45 mg/kg, ip measured up to 24 hrs; type: ADME, organism-based; set-up: time < 24 hrs, dose 45 mg/kg, route ip; settings: in vivo
[19] = Half life in BALB/c mouse at 45 mg/kg, ip measured up to 24 hrs; type: ADME, organism-based; settings: in vivo
[20] = Antitumor activity against human Topotecan-resistant S1M180 cells over expressing BCRP xenografted in BALB/c nude mouse model assessed as fold change in topotecan level at 45 mg/kg, ip administered every 2 days for 6 times relative to control; type: functional, Topotecan-resistant S1M180 cell; settings: time 12 day
[21] = Tmax in BALB/c mouse at 45 mg/kg, ip measured up to 24 hrs; type: ADME, organism-based; settings: in vivo
[22] = Antiproliferative activity against BCRP-mediated human Topotecan-resistant S1M180 cells assessed as inhibition of cell growth incubated for 5 days by MTS assay; type: functional, cell-based; settings: 120 h
[23] = AUC(0 to infinity) in BALB/c mouse at 45 mg/kg, ip measured up to 24 hrs; type: ADME, organism-based; set-up: dose 45 mg/kg, time < 24 hrs, route ip; settings: in vivo
[24] = Antiproliferative activity against BCRP-mediated human Doxorubicin-resistant S1M180 cells assessed as inhibition of cell growth incubated for 5 days by MTS assay; type: functional, cell-based; settings: S1-M1-80, 120 h
[25] = Antiproliferative activity against BCRP-mediated Topotecan-resistant HEK293/R2 cells assessed as inhibition of cell growth incubated for 5 days by MTS assay; type: functional, cell-based; settings: Homo sapiens, HEK293/R2, 120 h
[26] = Antiproliferative activity against BCRP-mediated human Topotecan-resistant MCF7/MX100 cells assessed as inhibition of cell growth incubated for 5 days by MTS assay; type: functional, cell-based; settings: MCF7/MX100, 120 h
[27] = Antiproliferative activity against […]-mediated human Doxorubicin-resistant 2008/MRP1 cells assessed as inhibition of cell growth incubated for 5 days by MTS assay; type: functional, cell-based, Doxorubicin-resistant 2008/MRP1 cell; settings: 2008/MRP1, 120 h

- IC50 (HepG2 [2]): 59.6 nM
Structure (SMILES): COc1cc(C(=O)c2nn(-c3ccccc3)nc2N2CCC(N)CC2)cc(OC)c1OC
- IC50 (Hep 3B2): 40.9 nM
- inhibition in vivo at 15 mg/kg (H22 [1]): 66%
- inhibition in vivo at 45 mg/kg (H22 [3]): 82%

- IC50 (A549 [6]): 2270 nM
Structure (SMILES): COc1cc(/C=C/C(=O)C(Cc2cn(Cc3ccc(Cl)c(Cl)c3)nn2)C(=O)/C=C/c2ccc(O)c(OC)c2)ccc1O
- IC50 [4]: > 100000 nM
- Activity (A549 [5]): 39.07%

- IC50 (SGC-7901 [8]): 3500 nM
- IC50 (BGC-823 [11]): 400 nM
- IC50 (MGC-803 [13]): 3400 nM
Structure (SMILES): Cc1cc(=O)oc2cc(OCc3cn(-c4ccc(S(N)(=O)=O)cc4)nn3)ccc12
- Ratio IC50 (BGC-823 [7]): 4.1
- Ratio IC50 (MGC-803 [9]): 4.1
- inhibition in vivo at 60 mg/kg (MGC-803 [10]): 64.2%
- Ratio IC50 (SGC-7901 [12]): 4.1

- IC50 (NCI-H460): 65.4 nM
- IC50 (HepG2 [15]): 65.4 nM
- IC50 (MDA-MB-231): 65.4 nM
- IC50 (HT-29): 65.4 nM
- IC50 (SGC-7901 [16]): 63 nM
- IC50 (MCF7): 63 nM
- IC50 (A549 [6]): 63 nM
- IC50 (A549/TR): 65.4 nM
- IC50 (Bel-7402): 65.4 nM
Structure (SMILES): COc1cc(C(=O)c2nn(-c3ccccc3F)nc2N2CC(O)C2)cc(OC)c1OC
- inhibition in vivo at 80 mg/kg (A549 [14]): 60%

- IC50 (MCF7): 3200 nM
Structure (SMILES): Clc1ccc(N/N=C/c2cn(-c3cc(Cl)cc(Cl)c3)nn2)cc1
- inhibition in vivo at 15 mg/kg (4T1): > 60%

- Cmax [18]: 15700 ng/mL
- half-life [19]: 10.6 h
- Tmax [21]: 3 h
- AUC(0-inf) [23]: 83500 ng·h/mL
Structure (SMILES): COC(=O)c1cccc(COc2c(-c3ccc(OCCOCCc4cn(CN(Cc5ccccc5)Cn5cc(CCOCCOc6ccc(-c7oc8ccccc8c(=O)c7OCc7cccc(C(=O)OC)c7)cc6)nn5)nn4)cc3)oc3ccccc3c2=O)c1
- Activity [17]: 40%
- fold change (FC) [20]: 2
- EC50 [22]: 3.3 nM
- EC50 [24]: 3.3 nM
- EC50 [25]: 3.3 nM
- EC50 [26]: 3.3 nM
- EC50 [27]: 3.3 nM
